Assay results taken from patent US20080253960A1, “Lipoprotein-Based Nanoplatforms” (The Trustees of the University of Pennsylvania Center for …, priority 2004, published 2008).

Key:
[1] = tested on: HepG2 tumor cells; test: laser scanning confocal microscopy of r-(Pyro-CE)-LDL uptake; type: cell-based, human; details: 20 μg/mL r-(Pyro-CE)-LDL, or same amount of Pyro-CE without reconstitution into LDL
Experimental: To visualize LDLR-mediated internalization of these NIRF/PDT agents into tumor cells, we performed laser scanning confocal microscopy studies on r-(Pyro-CE)-LDL in HepG2 tumor cells. Four sets of experiments were performed on a Leica TCS SPII laser scanning confocal microscope (Heidelberg, Germany). […] In a control experiment, HepG2 cells were incubated with native LDL but without the photosensitizer at 37° C. for 3 h to determine any possible background fluorescence. […] To determine the specificity of this LDL based photosensitizer toward LDL receptors, HepG2 cells were incubated with either a 25-fold excess of unlabeled LDL in addition to the 20 μg/mL r-(Pyro-CE)-LDL or with the same amount of Pyro-CE but without reconstitution of this agent into LDL.

[2] = tested on: HepG2 tumor cells; test: confocal microscopy of LDLR-specific uptake of r-SiPcBOA-LDL; type: cell-based, human; details: same amount of dye alone as in r-SiPcBOA-LDL
Experimental: Confocal Microscopy Studies: For confocal microscopy studies, HepG2 cells were grown in 4-well Lab-Tek chamber slides (Naperville, Ill.) at a density of 40,000 cells/well. Experiments were started, after two quick washes with pre-incubation medium (medium with 0.8% (w/v) BSA instead of FBS), by the addition of pre-incubation medium containing the indicated amounts of r-SiPcBOA-LDL/AcLDL and/or unlabeled LDL. After a 4 h incubation at 37° C., the cells were washed three times with ice-cold PBS and fixed for 15 minutes with 3% formaldehyde in PBS at room temperature. Then the chamber slides were mounted and sealed for confocal microscopy analysis. Confocal microscopy was performed with a Leica TCS SPII laser scanning confocal microscope (Heidelberg, Germany). Filter settings were 633 nm for excitation and 638-800 nm for emission. Confocal Microscopy Studies of the LDLR-Specific Uptake: To visualize LDLR-mediated internalization of r-SiPcBOA-LDL, we performed laser scanning confocal microscopy studies on HepG2 tumor cells. […] To determine the specificity of this r-SiPcBOA-LDL toward LDLR, three sets of control experiments were performed.

Substance | fluorescence signal (confocal) [1] | fluorescence signal (confocal) [2]
pyropheophorbide cholesterol oleate [Pyro-CE] | No fluorescence | 
tetra-t-butyl silicon phthalocyanine bisoleate [(tBu)4SiPcBOA] |  | did not lead to any observable fluorescence
